Reference: patent US7060694B2, “High potency dihydroergotamine compositions” (Pozen Inc., priority 1999, dated 2006)

Legend:
[1] = format: in vivo, human; details: after either treatment (MT 300 sc or DHE 45 im), LLOQ 50 pg/ml
Protocol: The study described above in Example 2 utilizes an incomplete crossover design. This protocol is amended to provide a direct comparison of the tolerance and pharmacokinetics of a 2 mg/ml (2.9 mM) formulation of MT 300 (Formulation A-2) and DHE 45®. The present experiment is a randomized, open-label, two period, […], crossover study comparing subcutaneous administration of 1.2 mg of MT 300 and intramuscular administration of 1 mg of DHE 45®. Plasma dihydroergotamine and the 8-hydroxydihydroergotamine metabolite are measured with an LC/MS/MS method, with a LLOQ of 50 pg/ml for both DHE and 8-OH DHE. Serial blood samples are collected for 72 hours after the dose. Seven of 8 subjects complete this study. One subject withdraws from the study due to difficulty in obtaining the blood samples. The adverse event profile is similar to that observed in the study of Example 2.

[2] = Solubility of DHE in aqueous formulations with caffeine
[3] = Animal studies of DHE absorption with caffeine; format: in vivo; details: caffeine at 10:1 weight ratio relative to DHE
[4] = Example 4: overall tolerance profile (adverse events) of subjects administered DHE; format: in vivo, human; details: DHE concentration increased from 1.5 mM to 2.9 mM or more, total quantity of DHE constant
Excerpt: Adverse events occur in 20 of 33 subjects treated with MT 300 and 8 of 13 subjects treated with DHE 45®.

[5] = DHE given subcutaneously at 1.5 mM; cited from earlier work

Row | Compound | plasma levels of 8-OH DHE metabolite [1] | solubility of DHE in aqueous formulations [2] | drug absorption characteristics [3] | side effects, particularly nausea [4] | nausea in treated patients [5] [%]
1 | 8-hydroxydihydroergotamine [8-OH DHE] | No significant levels |  |  |  | 
2 | CN1C[C@H](C(=O)N[C@]2(C)O[C@@]3(O)[C@@H]4CCCN4C(=O)[C@H](Cc4ccccc4)N3C2=O)C[C@@H]2c3cccc4[nH]cc(c34)C[C@H]21 [DHE, Dihydroergotamine] |  | greatly increases the solubility | improves drug absorption characteristics | reduced | ~16
